Patent US8674109B2, “Pesticidal compositions” (Dow AgroSciences, LLC., priority 2009, dated 2014)

Tests used:
Format in all cases: in vivo
[1] = test system: beet armyworm (BAW; Spodoptera exigua: Lepidoptera); assay: Insecticidal test for beet armyworm, 128-well diet tray assay
How it was run: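 Three to five second-instar larvae per well fed on artificial diet surface-treated with 50 μg/cm^2 compound (applied in 90:10 acetone-water, dried). Trays were held six days at 25 °C, 14:10 light-dark. Percent mortality was averaged across eight wells.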

[2] = test system: green peach aphid (Myzus persicae); assay: Insecticidal test for green peach aphid in foliar spray assay on cabbage seedlings
How it was run: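 Cabbage seedlings carrying 20-50 aphids (adults and nymphs) were sprayed to runoff with compound at 200 ppm in acetone/methanol diluted in 0.025% Tween 20, with four pots per treatment. After three days at about 25 °C and 40% RH, live aphids were counted. Percent control was Abbott-corrected against solvent-check plants.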

[3] = test system: corn earworm (CEW; Helicoverpa zea: Lepidoptera); assay: Insecticidal test for corn earworm, 128-well diet tray assay
How it was run: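 Second-instar larvae, three to five per well, placed on artificial diet treated with 50 μg/cm^2 compound applied in 90:10 acetone-water and dried. Held six days at 25° C., 14:10 light-dark. Percent mortality scored per well and averaged over eight wells.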

Row | SMILES | % Mortality BAW 50 μg/cm^2 [1] | % Mortality GPA 200 ppm [2] | % Mortality CEW 50 μg/cm^2 [3]
1 | COc1ccc(CC(C)(C)OC(=O)Nc2ccc(-c3ncn(-c4ccc(OC(F)(F)F)cc4)n3)cc2)cc1 [Compound 100] | B (Less than 50) | B (Less than 80) | B (Less than 50)
2 | CCCCCC(CC)OC(=O)Nc1ccc(-c2ncn(-c3ccc(OC(F)(F)F)cc3)n2)cc1 (stereo not drawn) [Compound 101] | A (50-100) | B (Less than 80) | A (50-100)
3 | CCCCCCC(C)OC(=O)Nc1ccc(-c2ncn(-c3ccc(OC(F)(F)F)cc3)n2)cc1 (stereo not drawn) [Compound 102] | B (Less than 50) | B (Less than 80) | B (Less than 50)
4 | CC(OC(=O)Nc1ccc(-c2ncn(-c3ccc(OC(F)(F)F)cc3)n2)cc1)C(C)(C)C (stereo not drawn) [Compound 103] | A (50-100) | B (Less than 80) | B (Less than 50)
5 | COC(=O)Nc1ccc(-c2ncn(-c3ccc(OC(F)(F)F)cc3)n2)cc1 [Compound 104] | A (50-100) | B (Less than 80) | A (50-100)
6 | O=C(Nc1ccc(-c2ncn(-c3ccc(OC(F)(F)F)cc3)n2)cc1)OCc1ccccc1 [Compound 105] | A (50-100) | B (Less than 80) | A (50-100)
7 | O=C(Nc1ccc(-c2ncn(-c3ccc(OC(F)(F)F)cc3)n2)cc1)OC1Cc2ccccc2C1 [Compound 106] | B (Less than 50) | B (Less than 80) | A (50-100)
8 | CC(Cc1ccccc1)OC(=O)Nc1ccc(-c2ncn(-c3ccc(OC(F)(F)F)cc3)n2)cc1 (stereo not drawn) [Compound 107] | A (50-100) | B (Less than 80) | A (50-100)
9 | CC1(OC(=O)Nc2ccc(-c3ncn(-c4ccc(OC(F)(F)F)cc4)n3)cc2)Cc2ccccc2C1 [Compound 108] | B (Less than 50) | B (Less than 80) | B (Less than 50)
10 | O=C(Nc1ccc(-c2ncn(-c3ccc(OC(F)(F)F)cc3)n2)cc1)OC1CCc2ccccc21 (stereo not drawn) [Compound 109] | B (Less than 50) | B (Less than 80) | A (50-100)
11 | CC(OC(=O)Nc1ccc(-c2ncn(-c3ccc(OC(F)(F)F)cc3)n2)cc1)c1cccnc1 (stereo not drawn) [Compound 110] | A (50-100) | B (Less than 80) | A (50-100)
12 | O=C(Nc1ccc(-c2ncn(-c3ccc(OC(F)(F)F)cc3)n2)cc1)OCc1c(Cl)cccc1Cl [Compound 111] | B (Less than 50) | B (Less than 80) | A (50-100)
13 | N#CC(OC(=O)Nc1ccc(-c2ncn(-c3ccc(OC(F)(F)F)cc3)n2)cc1)c1ccccc1 (stereo not drawn) [Compound 112] | A (50-100) | B (Less than 80) | A (50-100)
14 | CCC(CC)OC(=O)Nc1ccc(-c2ncn(-c3ccc(OC(F)(F)F)cc3)n2)cc1 [Compound 113] | A (50-100) | B (Less than 80) | A (50-100)
15 | CC(OC(=O)Nc1ccc(-c2ncn(-c3ccc(OC(F)(F)F)cc3)n2)cc1)c1c(F)c(F)c(F)c(F)c1F (stereo not drawn) [Compound 114] | A (50-100) | B (Less than 80) | B (Less than 50)
16 | CC(OC(=O)Nc1ccc(-c2ncn(-c3ccc(OC(F)(F)F)cc3)n2)cc1)c1ccc(C(F)(F)F)cc1C(F)(F)F (stereo not drawn) [Compound 115] | B (Less than 50) | B (Less than 80) | B (Less than 50)
17 | CC(OC(=O)Nc1ccc(-c2ncn(-c3ccc(OC(F)(F)F)cc3)n2)cc1)c1ccc(-c2ccccc2)cc1 (stereo not drawn) [Compound 116] | B (Less than 50) | B (Less than 80) | A (50-100)

Row | SMILES | % Mortality BAW 50 μg/cm^2 [1] | % Mortality GPA 200 ppm [2] | % Mortality CEW 50 μg/cm^2 [3]
18 | CC(OC(=O)Nc1ccc(-c2ncn(-c3ccc(OC(F)(F)F)cc3)n2)cc1)c1ccc(F)cn1 (stereo not drawn) [Compound 117] | A (50-100) | B (Less than 80) | A (50-100)
19 | CC(OC(=O)Nc1ccc(-c2ncn(-c3ccc(OC(F)(F)F)cc3)n2)cc1)c1ccc(Cl)cn1 (stereo not drawn) [Compound 118] | A (50-100) | B (Less than 80) | A (50-100)
20 | COc1ccc(C(C)OC(=O)Nc2ccc(-c3ncn(-c4ccc(OC(F)(F)F)cc4)n3)cc2)nc1 (stereo not drawn) [Compound 119] | A (50-100) | B (Less than 80) | A (50-100)
21 | CC(OC(=O)Nc1ccc(-c2ncn(-c3ccc(OC(F)(F)F)cc3)n2)cc1)c1cccc(Cl)n1 (stereo not drawn) [Compound 120] | A (50-100) | B (Less than 80) | A (50-100)
22 | Cc1cc(C)c(CCOC(=O)Nc2ccc(-c3ncn(-c4ccc(OC(F)(F)F)cc4)n3)cc2)c(C)c1 [Compound 121] | B (Less than 50) | B (Less than 80) | A (50-100)
23 | O=C(Nc1ccc(-c2ncn(-c3ccc(OC(F)(F)F)cc3)n2)cc1)Oc1ccccc1 [Compound 122] | A (50-100) | B (Less than 80) | A (50-100)
24 | Cc1ccc(OC(=O)Nc2ccc(-c3ncn(-c4ccc(OC(F)(F)F)cc4)n3)cc2)cn1 [Compound 123] | B (Less than 50) | B (Less than 80) | B (Less than 50)
25 | O=C(Nc1ccc(-c2ncn(-c3ccc(OC(F)(F)F)cc3)n2)cc1)Oc1ccccc1C(F)(F)F [Compound 124] | A (50-100) | B (Less than 80) | A (50-100)
26 | Cc1cc(Cl)ccc1OC(=O)Nc1ccc(-c2ncn(-c3ccc(OC(F)(F)F)cc3)n2)cc1 [Compound 128] | A (50-100) | B (Less than 80) | A (50-100)
27 | O=C(Nc1ccc(-c2ncn(-c3ccc(OC(F)(F)F)cc3)n2)cc1)Oc1cccc(-c2ccccc2)c1 [Compound 129] | A (50-100) | B (Less than 80) | A (50-100)
28 | CCN(C(=O)OC(C)c1ccc(C(F)(F)F)nc1)c1ccc(-c2ncn(-c3ccc(OC(F)(F)F)cc3)n2)cc1 (stereo not drawn) [Compound 130, 1-(6-(trifluoromethyl)pyridin-3-yl)ethyl ethyl(4-(1-(4-(trifluoromethoxy)phenyl)-1H-1,2,4-triazol-3-yl)phenyl)carbamate] | A (50-100) | B (Less than 80) | A (50-100)
29 | COC(=S)Nc1ccc(-c2ncn(-c3ccc(OC(F)(F)F)cc3)n2)cc1 [Compound 132, O-methyl 4-(1-(4-(trifluoromethoxy)phenyl)-1H-1,2,4-triazol-3-yl)phenylcarbamothioate] | A (50-100) | B (Less than 80) | B (Less than 50)
30 | CC(OC(=S)Nc1ccc(-c2ncn(-c3ccc(OC(F)(F)F)cc3)n2)cc1)c1ccc(C(F)(F)F)nc1 (stereo not drawn) [Compound 133, O-1-(6-(trifluoromethyl)pyridin-3-yl)ethyl 4-(1-(4-(trifluoromethoxy)phenyl)-1H-1,2,4-triazol-3-yl)phenylcarbamothioate] | A (50-100) | B (Less than 80) | A (50-100)
31 | Fc1ccc(OC(=S)Nc2ccc(-c3ncn(-c4ccc(OC(F)(F)F)cc4)n3)cc2)cc1 [Compound 134, O-4-fluorophenyl 4-(1-(4-(trifluoromethoxy)phenyl)-1H-1,2,4-triazol-3-yl)phenylcarbamothioate] | B (Less than 50) | B (Less than 80) | B (Less than 50)
32 | COC(=O)Nc1ccc(-c2ncn(-c3ccc(OC(F)(F)C(F)(F)F)cc3)n2)cc1 [Compound 135, methyl 4-(1-(4-(perfluoroethoxy)phenyl)-1H-1,2,4-triazol-3-yl)phenylcarbamate] | A (50-100) | B (Less than 80) | A (50-100)
33 | CN(C(=O)Oc1ccc([N+](=O)[O-])cc1)c1ccc(-c2ncn(-c3ccc(OC(F)(F)F)cc3)n2)cc1 [Compound 136, methyl-{4-[1-(4-trifluoromethoxyphenyl)-1H-[1,2,4]triazol-3-yl]-phenyl}-carbamic acid 4-nitrophenyl ester] | B (Less than 50) | B (Less than 80) | B (Less than 50)
